Data taken from paper PMC12030059, “Mechanistic Advances in the Therapeutic Application of Bixin for Lung Inflammation In Vitro and In Vivo” (Pharmaceuticals, 2025).
pEC50: −log10 of the molar value.

Legend:
Rat plasma stability = format: in vitro ADME; conditions: over 4 h, 50 μM, 37 °C
Method: Two- to three-month-old healthy male Wistar rats (with an average weight of 385 g) were obtained from the Graduation Program in Pharmacology and Medicinal Chemistry Bioterium (CCS/UFRJ) (Rio de Janeiro, Brazil). The rats were fed ad libitum with Purina chow (Nuvilab, Curitiba, Brazil) and had unrestricted access to water. They were housed in a controlled environment maintained at 22 ± 2 °C, 50–70% relative humidity and a 12 h light/dark cycle. The local Animal Ethics Committee approved all experimental procedures (046/21).
A 10 mM stock solution of bixin was prepared in DMSO. Rat blood was collected with heparin and centrifuged. The plasma fraction was separated and diluted to 80% in PBS at pH 7.4. Then, 50 μL of the 80% rat plasma solution was added to a final volume of 250 μL of a KPE at pH 7.4 containing 50 μM of bixin. The bixin was incubated with rat plasma under these conditions for 0, 30, 60, 120, and 240 min with shaking in a water bath at 37 °C. […] The supernatant was collected, filtered through a 0.22 μm filter into a vial, and then analyzed by HPLC using an LC-20AD Shimadzu (Kyoto, Japan) system equipped with a 100-5C18 Kromasil (Bohus, Sweden) analytical column (4.6 mm × 250 mm, 5 μm) and an SPD M20A diode array detector Shimadzu (Kyoto, Japan) set to wavelengths of 271 nm and 457 nm. […]

[1] = PAMPA-GIT permeability assay; format: in vitro ADME
Source text: The parallel artificial membrane permeability assay (PAMPA) utilizes a 96-well plate system in a “sandwich” format, where one plate is positioned above another (PAMPA). The upper plate, known as the donor compartment, contains the compounds (test or control) dissolved in a buffered solution. […] The lipid composition of the PVDF filter varies depending on the type of permeability test. For gastrointestinal tract (GIT) permeability assessments, L-α-soy phosphatidylcholine in dodecane is used. Optical density values are measured at specified wavelengths for each compound and compared against controls. For GIT permeability, the absorbed fraction (Fa%) and permeability (Pe) are determined. […] Compounds for these assays were diluted from a 10 mM stock solution. These assays were conducted using a 1 mg/mL stock solution per compound.

[2] = Rat liver microsomal stability in the absence of cofactors (NADPH generating system); format: in vitro ADME; conditions: rat liver microsomes without NADPH cofactors, 4 h, 50 μM, 37 °C
Method: A final solution of microsomes (1 mg/mL protein) in 250 μL of PBS at pH 7.4 containing 50 μM of bixin was prepared in the absence of an NADPH-regenerating metabolic cofactor system. The bixin was incubated with rat microsomes under these conditions for 0, 30, 60, 120, and 240 min with shaking in a water bath at 37 °C. The subsequent steps for protein precipitation, bixin extraction, and HPLC analysis were identical to those described for the rat plasma stability assay.

[3] = tested on: C57BL/6 mice challenged with intranasal LPS; experiment: Intranasal LPS lung inflammation in mice, BAL cytokine ELISA; format: in vivo; conditions: 200 mg/kg gavage, 5 days
Method: Eight-week-old male C57BL/6 mice were obtained from the Multidisciplinary Center for Biological Research in Laboratory Animal Science (CEMIB/UNICAMP, Campinas, Brazil). The mice were provided with Purina chow ad libitum (Nuvilab, Curitiba, Brazil) and had unrestricted access to water in a controlled environment maintained at 22 ± 2 °C, 50–70% relative humidity, and a 12 h light/dark cycle (EB-273B, Insight Equipamentos Ltd., São Paulo, Brazil). They were acclimatized for two weeks before the experimental procedures. All experimental protocols were approved by the local Animal Ethics Committee (096/19).
To evaluate the pharmacological effects of potassium bixinate, the animals were divided into four groups (n = 5–7): (1) Control, (2) KBx, (3) LPS, and (4) LPS + KBx. For five consecutive days, animals in groups 2 and 4 were treated by oral gavage with 200 mg/kg of potassium bixinate diluted in PBS in a final volume of 100 μL, while animals in groups 1 and 3 were treated with 100 μL of PBS. On the sixth day, animals in groups 3 and 4 were challenged intranasally with 60 μg of LPS (extracted from Escherichia coli O55:B5) diluted in PBS (10 μL), while animals in groups 1 and 2 received 10 μL of PBS intranasally. Sixteen hours after LPS/PBS instillation, the animals were euthanized by cervical dislocation under isoflurane sedation.
Immediately following euthanasia, BAL was collected using an intratracheal cannula. The lavage was performed with 1.5 mL of saline solution (3 × 0.5 mL). The collected lavage fluid was centrifuged at 600× g for 10 min, and the supernatant was stored at −80 °C for subsequent enzyme-linked immunosorbent assay (ELISA) analysis.
Cytokine levels (IL-10 and KC; #900-K53K and #900-K127K) were quantified in BAL samples using an ELISA kit, following the manufacturer’s instructions (PeproTech, Neuilly Sur-Seine, France). A sample volume of 25 μL was used without dilution. The enzymatic reaction was initiated with peroxidase and a specific substrate, and the reaction was stopped before measuring absorbance at 450 nm and 570 nm using a Varioskan LUX spectrometer (ThermoFisher Scientific, Waltham, MA, USA). A calibration curve was generated using standard concentrations of the target protein, with the method showing linearity across a range of 2000–0 pg/mL.

[4] = Solubility tests of the potassium salt; format: physicochemical
Nrf2/ARE axis = experiment: Luciferase ARE reporter assay; format: cell-based; conditions: RAW 264.7 transfected with ARE luciferase reporter, 0–200 μM; read-out: EC50 in activating the Nrf2/ARE axis
Method: RAW 264.7 cells (3.5 × 10^5 cells/well) were seeded into 24-well plates in FBS-free DMEM. Next day, cells were transfected with the ARE-responsive luciferase reporter kit (#60514, BPS Bioscience, San Diego, CA, USA) in Opti-MEM containing Lipofectamine 2000 and incubated for 24 h. After stimulation with different concentrations of potassium bixinate (0–200 μM), the luciferase-containing medium was collected and incubated with luciferin substrate (Dual Luciferase Assay System) (#60683-1, BPS Bioscience, San Diego, CA, USA) according to the manufacturer’s instructions. Luminescence emitted by luciferin cleavage was measured using the Varioskan LUX plate reader (ThermoFisher Scientific, Waltham, MA, USA).

COC(=O)/C=C/C(C)=C\C=C\C(C)=C\C=C\C=C(C)\C=C\C=C(C)\C=C\C(=O)O [HBx, (2E,4E,6E,8E,10E,12E,14E,16Z,18E)-20-methoxy-4,8,13,17-tetramethyl-20-oxoicosa-2,4,6,8,10,12,14,16,18-nonaenoic acid]
initial concentration retained in plasma (Rat plasma stability): ~100%
Papp ([1]; L-α-soy phosphatidylcholine in dodecane, read-out: Experimental Pe): 0.36 ×10⁻⁶ cm/s
Experimental Fa ([1]; absorbed fraction): 12.79%
initial concentration maintained in microsomes [2]: ~100%

potassium bixinate [KBx]
IL-10 levels in BAL, KBx alone ([3]; no LPS): comparable to the control
KC levels in BAL, KBx alone vs control ([3]; no LPS): no significant effect on KC levels
IL-10 levels in BAL, LPS + KBx ([3]; then LPS 60 μg i.n., 16 h): can increase IL-10 production in the presence of LPS
KC levels in BAL, LPS + KBx vs LPS ([3]; then LPS 60 μg i.n., 16 h): significantly lower compared to the LPS group
aqueous solubility relative to bixin [4]: significant increase in the aqueous solubility
pEC50 (Nrf2/ARE axis): 4.34
